This is an account of results in paper PMC9920298, “Coronavirus Inhibitors Targeting nsp16” (Molecules, 2023).

One data set deals with GST-NSP16 SARS-CoV-1 (Severe acute respiratory syndrome coronavirus, UniProt P0C6X7). In words: biochemical. The data set is classed as binding.
In another data set the target is GST-NSP16 SARS-CoV-2 (Severe acute respiratory syndrome coronavirus 2, UniProt P0DTD1). In words: biochemical. In kind it is binding.
A further data set addresses GST-NSP16 MERS-CoV (Middle East respiratory syndrome-related coronavirus, UniProt K9N7C7). In words: biochemical. The data set is classed as binding.
The nature of data set [1]: Cell viability (resazurin) assay in normal lung fibroblasts. The conditions noted are these: human, MRC-5 lung fibroblasts. (In general: Alamar Blue is a resazurin reagent that responds to reducing activity.)

Sequence of GST-NSP16 MERS-CoV (K9N7C7 6776-7078 limits assumed): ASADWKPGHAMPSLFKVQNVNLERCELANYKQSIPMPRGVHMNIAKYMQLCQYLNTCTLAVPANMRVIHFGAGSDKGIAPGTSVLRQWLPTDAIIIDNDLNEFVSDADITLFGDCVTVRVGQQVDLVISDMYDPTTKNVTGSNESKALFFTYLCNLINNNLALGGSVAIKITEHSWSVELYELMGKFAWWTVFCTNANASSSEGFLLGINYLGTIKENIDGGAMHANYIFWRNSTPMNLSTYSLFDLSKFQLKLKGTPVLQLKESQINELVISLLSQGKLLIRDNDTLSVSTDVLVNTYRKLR

As to `Cc1ccc2ccccc2c1COc1ccc2c(-c3cc4ccccc4oc3=O)cc(=O)oc2c1` [ZINC2121012, 7′-[(2-methylnaphthalen-1-yl)methoxy]-2H,2′H-3,4′-bichromene-2,2′-dione], the “Binding to SARS-CoV-1 nsp16 by MST (in words)” value at GST-NSP16 SARS-CoV-1 is “bound to neither SARS-CoV-1 nor MERS-CoV”. In addition, at GST-NSP16 SARS-CoV-2, the “Binding to SARS-CoV-2 nsp16 by MST (in words)” value (shortened to “Binding to SARS-CoV-2 nsp16”) was “strong binding” and binding was put at a Kd of 23.1 ± 1.05 µM. At GST-NSP16 MERS-CoV, the “Binding to MERS-CoV nsp16 by MST (in words)” value is listed as “bound to neither SARS-CoV-1 nor MERS-CoV”.
`O=c1cc(-c2cc3ccccc3oc2=O)c2ccc(OCc3cccc4ccccc34)cc2o1` [ZINC2129028, 7′-(naphthalen-1-ylmethoxy)-2H,2′H-3,4′-bichromene-2,2′-dione]: in data set [1], it took 18.5 ± 0.66 µM to reach half-maximal cytotoxicity (CC50 at 72 h). The figures for the Kd at GST-NSP16 SARS-CoV-1, at GST-NSP16 SARS-CoV-2 and on GST-NSP16 MERS-CoV were 56.4 ± 1.85 µM, 60 ± 2.53 µM and 48.1 ± 4.12 µM, respectively. Further, the “Binding to SARS-CoV-2 nsp16” value at GST-NSP16 SARS-CoV-2 is given as “strong binding”.
`COc1cccc2c(-c3cc4ccc(OCc5ccc6ccccc6c5)cc4oc3=O)cc(=O)oc12` [ZINC12880820, 8′-methoxy-7-[(naphthalen-2-yl)methoxy]-2H,2′H-[3,4′-bichromene]-2,2′-dione]: the values for the dissociation constant (Kd) at GST-NSP16 SARS-CoV-1, on GST-NSP16 SARS-CoV-2 and at GST-NSP16 MERS-CoV were above 100 µM, 29.1 ± 2.86 µM and 36.4 ± 1.12 µM, respectively. Besides, the “Binding to SARS-CoV-2 nsp16” value on GST-NSP16 SARS-CoV-2 was “strong binding”.

The Kd is a measure of binding affinity in units of concentration. A low value points to a tighter complex. The term CC50 denotes the concentration that lowers cell viability or growth by half. Higher therefore signals better tolerance by the cells.
